Experimental data: patent US11932636B2, “RAD51 inhibitors” (Cyteir Therapeutics, Inc., priority 2019, dated 2024)

Test system: Daudi cells (AID positive)
Assay: Compound primary screening: cell death in AID positive Daudi cells (Cell-Titer Glo, Day 7)
Format: cell-based
Details: Homo sapiens, 168 h; Daudi cells, AID positive; cell death on Day 7, Cell-Titer Glo; read-out: Cellular activity in AID + (Daudi)
Outline: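 AID-positive Daudi cells were seeded at 1250 cells per well and treated with serially diluted compound delivered from a DMSO/media master plate. Cultures were incubated at 37 °C, and cell death was measured on Day 7 with Cell-Titer Glo luminescence.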

Molecule `CC(C)OC(=O)N[C@H]1CC[C@H](c2ncc(-c3ccc(Nc4cccnn4)cc3S(=O)(=O)NC(C)(C)C)s2)CC1` [Compound 174, isopropyl trans-N-[4-[5-[2-(tert-butylsulfamoyl)-4-(pyridazin-3-ylamino)phenyl]thiazol-2-yl]cyclohexyl]carbamate] has an EC50 of 100 to 1000 nM.
